{
  "source": "patent US20230355594A1",
  "about": "“TOPICAL OPHTHALMOLOGICAL COMPOSITIONS” (ADS THERAPEUTICS LLC, priority 2020, published 2023)",
  "details": "for Atropine concentraion, Observed stable concentration after 10X serial dilution of the saturating concentration: successive 10X dilutions",
  "key": {"[1]": {"details": "99.25% F6H8, 0.75% phenylethyl alcohol"}},
  "note": "Where “and” joins values, the source holds several entries; their conditions need not be identical. Equal values may be shown once. Read-outs that look alike come from different tables or passages of the source.",
  "data": [
    {"smiles": "CN1[C@@H]2CC[C@H]1C[C@@H](OC(=O)C(CO)c1ccccc1)C2", "note": "(stereo partly shown) [atropine]", "values": [
      {"measurement": "Atropine concentraion, Measured saturating concentraion by HPLC/UV", "setting": "98.00% F6H8, 2.00% isopropanol", "result": 0.153, "unit": "w/w %"},
      {"measurement": "Atropine concentraion, Measured saturating concentraion by HPLC/UV", "setting": "99.25% F6H8, 0.75% ethanol", "result": 0.108, "unit": "w/w %"},
      {"measurement": "Atropine concentraion, Observed stable concentration after 10X serial dilution of the saturating concentration", "setting": "99.25% F6H8, 0.75% ethanol", "result": "0.0108 w/w % and 0.00108 w/w % and 0.000108 w/w %"},
      {"measurement": "Atropine concentraion, Measured saturating concentraion by HPLC/UV", "setting": "99.25% F6H8, 0.75% isopropanol", "result": 0.082, "unit": "w/w %"},
      {"measurement": "Atropine concentraion, Observed stable concentration after 10X serial dilution of the saturating concentration", "setting": "99.25% F6H8, 0.75% isopropanol", "result": "0.0082 w/w % and 0.00082 w/w % and 0.000082 w/w %"},
      {"measurement": "Atropine concentraion, Measured saturating concentraion by HPLC/UV", "setting": "[1]", "result": 0.085, "unit": "w/w %"},
      {"measurement": "Atropine concentraion, Observed stable concentration after 10X serial dilution of the saturating concentration", "setting": "[1]", "result": "0.0085 w/w % and 0.00085 w/w % and 0.000085 w/w %"},
      {"measurement": "Atropine concentraion, Measured saturating concentraion by HPLC/UV", "setting": "99.50% F6H8, 0.50% ethanol", "result": 0.089, "unit": "w/w %"},
      {"measurement": "Atropine concentraion, Measured saturating concentraion by HPLC/UV", "setting": "99.50% F6H8, 0.50% isopropanol", "result": 0.055, "unit": "w/w %"},
      {"measurement": "Atropine concentraion, Measured saturating concentraion by HPLC/UV", "setting": "99.50% F6H8, 0.50% phenylethyl alcohol", "result": 0.055, "unit": "w/w %"},
      {"measurement": "Atropine concentraion, Measured saturating concentraion by HPLC/UV", "setting": "99.75% F6H8, 0.25% ethanol", "result": 0.031, "unit": "w/w %"},
      {"measurement": "Atropine concentraion, Measured saturating concentraion by HPLC/UV", "setting": "99.75% F6H8, 0.25% isopropanol", "result": 0.046, "unit": "w/w %"},
      {"measurement": "Atropine concentraion, Measured saturating concentraion by HPLC/UV", "setting": "99.75% F6H8, 0.25% phenylethyl alcohol", "result": 0.043, "unit": "w/w %"}
    ]}
  ]
}
